Structures can show the parent of a compound that is named as a salt.
Tested on: Plasmodium falciparum: 3D7 strain
Assay: P. falciparum 3D7 asexual blood stage assay (SYBR green readout)
Type: cell-based
Conditions: Plasmodium falciparum, 3D7, Erythrocyte, 72 h, P. falciparum 3D7 in human erythrocytes, 72 h incubation, SYBR green fluorescence
Outline: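 3D7-infected erythrocytes (5% haematocrit, 0.5% parasitaemia) were exposed 72 h at 37 °C under 1% O2/3% CO2 to a 20-point titration (50,000-15 nM final, 0.5% DMSO). Parasite DNA was read by SYBR green fluorescence after overnight lysis. Percent inhibition was set against mefloquine and DMSO, and EC50 came from a biphasic two-site fit.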

Row | SMILES | IC50
1 | C[C@H]1C[C@@H](N2C(=N)N[C@](C)(c3cccc(-c4cccc(N5CCOCC5)c4)c3Cl)CC2=O)CCO1 [Example 29, (6S)-6-{2-Chloro-3-[3-(morpholin-4-yl)phenyl]phenyl}-2-imino-6-methyl-3-[(2S,4S)-2-methyl-tetrahydropyran-4-yl]hexahydro-pyrimidin-4-one trifluoroacetic acid salt] | 0.065 µM
2 | C[C@H]1C[C@@H](N2C(=N)N[C@](C)(c3cccc(-c4cc5cccnc5n4C)c3Cl)CC2=O)CCO1 [Example 30, (6S)-6-[2-Chloro-3-(1-methyl-pyrrolo[2,3-b]pyridin-2-yl)phenyl]-2-imino-6-methyl-3-[(2S,4S)-2-methyltetrahydropyran-4-yl]-hexahydropyrimidin-4-one trifluoroacetic acid salt] | 0.199 µM
3 | C[C@H]1C[C@@H](N2C(=N)N[C@](C)(c3cccc(-c4ccc(C5CC5)nc4)c3Cl)CC2=O)CCO1 [Example 31, (6S)-6-[2-Chloro-3-(6-cyclopropyl-pyridin-3-yl)phenyl]-2-imino-6-methyl-3-[(2S,4S)-2-methyl-tetrahydropyran-4-yl]hexahydro-pyrimidin-4-one trifluoroacetic acid salt] | 0.18 µM
4 | Cc1cc(-c2cccc([C@]3(C)CC(=O)N([C@H]4CCO[C@@H](C)C4)C(=N)N3)c2Cl)on1 [Example 32, (6S)-6-[2-Chloro-3-(3-methyl-isoxazol-5-yl)phenyl]-2-imino-6-methyl-3-[(2S,4S)-2-methyl-tetrahydropyran-4-yl]hexahydro-pyrimidin-4-one trifluoroacetic acid salt] | 0.05 µM
5 | C[C@H]1C[C@@H](N2C(=N)N[C@](C)(c3cccc(-c4ccnnc4)c3Cl)CC2=O)CCO1 [Example 33, (6S)-6-[2-Chloro-3-(pyridazin-4-yl)phenyl]-2-imino-6-methyl-3-[(2S,4S)-2-methyltetrahydropyran-4-yl]hexahydropyrimidin-4-one trifluoroacetic acid salt] | 0.186 µM
6 | C[C@H]1C[C@@H](N2C(=N)N[C@](C)(c3cccc(-c4ccn(C)c(=O)c4)c3Cl)CC2=O)CCO1 [Example 34, (6S)-6-[2-Chloro-3-(1-methyl-2-oxopyridin-4-yl)phenyl]-2-imino-6-methyl-3-[(2S,4S)-2-methyl-tetrahydropyran-4-yl]hexahydro-pyrimidin-4-one trifluoroacetic acid salt] | 0.286 µM
7 | C[C@H]1C[C@@H](N2C(=N)N[C@](C)(c3cccc(-c4cccc5ccccc45)c3Cl)CC2=O)CCO1 [Example 35, (6S)-6-[2-Chloro-3-(naphth-1-yl)-phenyl]-2-imino-6-methyl-3-[(2S,4S)-2-methyltetrahydropyran-4-yl]hexahydropyrimidin-4-one trifluoroacetic acid salt] | 0.355 µM
8 | CC(C)c1ccccc1-c1cccc([C@]2(C)CC(=O)N([C@H]3CCO[C@@H](C)C3)C(=N)N2)c1Cl [Example 36, (6S)-6-[2-Chloro-3-(2-isopropyl-phenyl)phenyl]-2-imino-6-methyl-3-[(2S,4S)-2-methyltetrahydro-pyran-4-yl]hexahydropyrimidin-4-one trifluoroacetic acid salt] | 0.095 µM
9 | C[C@H]1C[C@@H](N2C(=N)N[C@](C)(c3cccc(-c4ccccc4C(F)(F)F)c3Cl)CC2=O)CCO1 [Example 37, (6S)-6-{2-Chloro-3-[2-(trifluoro-methyl)phenyl]phenyl}-2-imino-6-methyl-3-[(2S,4S)-2-methyl-tetrahydropyran-4-yl]hexahydro-pyrimidin-4-one trifluoroacetic acid salt] | 0.067 µM
10 | C[C@H]1C[C@@H](N2C(=N)N[C@](C)(c3cccc(-c4ccc(F)c(F)c4)c3Cl)CC2=O)CCO1 [Example 38, (6S)-6-[2-Chloro-3-(3,4-difluoro-phenyl)phenyl]-2-imino-6-methyl-3-[(2S,4S)-2-methyltetrahydro-pyran-4-yl]hexahydropyrimidin-4-one trifluoroacetic acid salt] | 0.135 µM
11 | C[C@H]1C[C@@H](N2C(=N)N[C@](C)(c3cccc(-c4ccncc4)c3Cl)CC2=O)CCO1 [Example 39, (6S)-6-[2-Chloro-3-(pyridin-4-yl)-phenyl]-2-imino-6-methyl-3-[(2S,4S)-2-methyltetrahydropyran-4-yl]hexahydropyrimidin-4-one trifluoroacetic acid salt] | 0.269 µM
12 | C[C@H]1C[C@@H](N2C(=N)N[C@](C)(c3cccc(-c4cccc(C#N)c4)c3Cl)CC2=O)CCO1 [Example 40, 3-(2-Chloro-3-{(4S)-2-imino-4-methyl-1-[(2S,4S)-2-methyl-tetrahydropyran-4-yl]-6-oxo-hexahydropyrimidin-4-yl}phenyl)-benzonitrile trifluoroacetic acid salt] | 0.05 µM
13 | C[C@H]1C[C@@H](N2C(=N)N[C@](C)(c3cccc(-c4cncnc4)c3Cl)CC2=O)CCO1 [Example 41, (6S)-6-[2-Chloro-3-(pyrimidin-5-yl)phenyl]-2-imino-6-methyl-3-[(2S,4S)-2-methyltetrahydropyran-4-yl]hexahydropyrimidin-4-one trifluoroacetic acid salt] | 0.145 µM
14 | C[C@H]1C[C@@H](N2C(=N)N[C@](C)(c3cccc(-c4cc(F)ccc4F)c3Cl)CC2=O)CCO1 [Example 42, (6S)-6-[2-Chloro-3-(2,5-difluoro-phenyl)phenyl]-2-imino-6-methyl-3-[(2S,4S)-2-methyltetrahydro-pyran-4-yl]hexahydropyrimidin-4-one trifluoroacetic acid salt] | 0.088 µM
15 | COc1ccc(-c2cccc([C@]3(C)CC(=O)N([C@H]4CCO[C@@H](C)C4)C(=N)N3)c2Cl)cn1 [Example 43, (6S)-6-[2-Chloro-3-(6-methoxy-pyridin-3-yl)phenyl]-2-imino-6-methyl-3-[(2S,4S)-2-methyl-tetrahydropyran-4-yl]hexahydro-pyrimidin-4-one trifluoroacetic acid salt] | 0.094 µM
16 | C[C@H]1C[C@@H](N2C(=N)N[C@](C)(c3cccc(-c4cc(F)cc(F)c4)c3Cl)CC2=O)CCO1 [Example 44, (6S)-6-[2-Chloro-3-(3,5-difluoro-phenyl)phenyl]-2-imino-6-methyl-3-[(2S,4S)-2-methyltetrahydro-pyran-4-yl]hexahydropyrimidin-4-one trifluoroacetic acid salt] | 0.103 µM
17 | C[C@H]1C[C@@H](N2C(=N)N[C@](C)(c3cccc(-c4ccn[nH]4)c3Cl)CC2=O)CCO1 [Example 45, (6S)-6-[2-Chloro-3-(1H-pyrazol-5-yl)phenyl]-2-imino-6-methyl-3-[(2S,4S)-2-methyltetrahydropyran-4-yl]hexahydropyrimidin-4-one trifluoroacetic acid salt] | 0.012 µM
18 | C[C@H]1C[C@@H](N2C(=N)N[C@](C)(c3cccc(-c4ccccc4Cl)c3Cl)CC2=O)CCO1 [Example 46, (6S)-6-[2-Chloro-3-(2-chloro-phenyl)phenyl]-2-imino-6-methyl-3-[(2S,4S)-2-methyltetrahydro-pyran-4-yl]hexahydropyrimidin-4-one trifluoroacetic acid salt] | 0.105 µM
19 | C[C@H]1C[C@@H](N2C(=N)N[C@](C)(c3cccc(-c4c(F)cccc4F)c3Cl)CC2=O)CCO1 [Example 47, (6S)-6-[2-Chloro-3-(2,6-difluoro-phenyl)phenyl]-2-imino-6-methyl-3-[(2S,4S)-2-methyltetrahydro-pyran-4-yl]hexahydropyrimidin-4-one trifluoroacetic acid salt] | 0.044 µM
